Here are results for 24 molecules from ChEMBL document CHEMBL1157462, “Sodium late current blockers in ischemia reperfusion: is the bullet magic?” (J Med Chem, 2008).

Active and inactive are the calls of the source. No cut-off for these calls is given here.

In general, ED50 refers to the dose at which the effect has come halfway, by size or by number of responders. A word on the IC50: it is the point on the concentration scale where inhibition reaches its midpoint.

The target in data set [1] is T1, Sodium channel protein type 5 subunit alpha (Homo sapiens, UniProt Q14524). The experiment in a line: Inhibition of human sodium Nav1.5 channel expressed in HEK293 cells assessed as inhibition of veratridine-induced late sodium current elicited at -30 mV from holding potential of -110 mV at 10 uM by patch clamp technique. The following applies: for inhibition at 10 µM: HEK293, human. The format is cell-based. (In general: In patch-clamp work, channel activity is measured electrically.)
T1 sequence (Q14524 whole entry): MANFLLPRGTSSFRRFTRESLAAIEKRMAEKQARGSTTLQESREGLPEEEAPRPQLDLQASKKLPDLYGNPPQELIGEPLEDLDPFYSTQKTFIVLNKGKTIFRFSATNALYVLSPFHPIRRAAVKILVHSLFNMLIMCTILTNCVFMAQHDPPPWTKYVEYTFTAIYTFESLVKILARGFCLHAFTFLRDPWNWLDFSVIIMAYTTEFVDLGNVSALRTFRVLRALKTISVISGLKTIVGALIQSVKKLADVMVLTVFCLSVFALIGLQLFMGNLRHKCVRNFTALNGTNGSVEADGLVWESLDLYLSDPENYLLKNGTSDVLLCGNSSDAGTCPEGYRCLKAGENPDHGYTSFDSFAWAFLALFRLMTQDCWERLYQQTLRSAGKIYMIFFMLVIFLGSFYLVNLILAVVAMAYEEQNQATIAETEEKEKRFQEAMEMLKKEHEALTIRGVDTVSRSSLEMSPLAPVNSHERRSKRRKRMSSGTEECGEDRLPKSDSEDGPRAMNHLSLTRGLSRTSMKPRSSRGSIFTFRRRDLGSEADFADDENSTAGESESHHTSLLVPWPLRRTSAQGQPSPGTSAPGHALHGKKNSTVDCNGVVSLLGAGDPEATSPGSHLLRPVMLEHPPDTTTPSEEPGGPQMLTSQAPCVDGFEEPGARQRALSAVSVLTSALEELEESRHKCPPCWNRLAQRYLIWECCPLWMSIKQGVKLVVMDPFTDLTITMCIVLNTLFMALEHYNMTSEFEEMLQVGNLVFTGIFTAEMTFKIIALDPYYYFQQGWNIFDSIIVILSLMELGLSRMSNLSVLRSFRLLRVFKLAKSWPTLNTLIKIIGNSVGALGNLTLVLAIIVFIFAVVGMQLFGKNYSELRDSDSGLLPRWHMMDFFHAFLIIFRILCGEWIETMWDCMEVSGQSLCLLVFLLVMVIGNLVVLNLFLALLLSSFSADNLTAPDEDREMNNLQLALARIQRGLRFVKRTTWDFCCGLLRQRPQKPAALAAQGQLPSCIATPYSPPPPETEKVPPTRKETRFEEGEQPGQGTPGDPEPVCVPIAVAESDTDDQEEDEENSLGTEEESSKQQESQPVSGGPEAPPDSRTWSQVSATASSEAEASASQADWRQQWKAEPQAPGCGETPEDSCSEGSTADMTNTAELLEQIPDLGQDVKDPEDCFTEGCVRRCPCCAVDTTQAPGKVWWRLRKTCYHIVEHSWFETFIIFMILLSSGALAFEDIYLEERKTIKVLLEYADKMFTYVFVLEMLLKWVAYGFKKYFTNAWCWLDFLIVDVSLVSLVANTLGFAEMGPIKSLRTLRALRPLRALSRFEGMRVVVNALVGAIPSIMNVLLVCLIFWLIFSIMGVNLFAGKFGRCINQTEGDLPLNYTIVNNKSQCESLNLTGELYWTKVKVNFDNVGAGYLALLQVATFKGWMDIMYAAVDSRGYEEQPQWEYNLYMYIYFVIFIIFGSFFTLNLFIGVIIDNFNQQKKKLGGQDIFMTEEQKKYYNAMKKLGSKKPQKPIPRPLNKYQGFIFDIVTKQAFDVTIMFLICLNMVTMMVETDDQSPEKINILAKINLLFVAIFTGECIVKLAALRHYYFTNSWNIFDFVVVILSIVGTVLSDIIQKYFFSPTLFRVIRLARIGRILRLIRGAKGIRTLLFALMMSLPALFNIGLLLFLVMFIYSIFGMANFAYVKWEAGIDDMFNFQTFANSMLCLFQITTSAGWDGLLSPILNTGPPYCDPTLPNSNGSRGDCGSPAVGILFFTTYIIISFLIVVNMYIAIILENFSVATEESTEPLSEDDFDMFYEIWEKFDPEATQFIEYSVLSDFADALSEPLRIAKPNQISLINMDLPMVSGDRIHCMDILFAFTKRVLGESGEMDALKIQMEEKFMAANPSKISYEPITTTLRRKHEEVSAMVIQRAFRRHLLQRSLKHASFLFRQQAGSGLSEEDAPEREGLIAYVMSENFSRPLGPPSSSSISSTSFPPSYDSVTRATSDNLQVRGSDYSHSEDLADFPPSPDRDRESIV

Data set [2] has as its target T1, Sodium channel protein type 5 subunit alpha. The experiment in a line: Inhibition of human sodium Nav1.5 channel expressed in HEK293 cells assessed as inhibition of veratridine-induced late sodium current elicited at -30 mV from holding potential of -90 mV at 10 uM by patch clamp technique. The format is cell-based. Conditions: for inhibition at 10 µM: HEK293, human.

In data set [3] the test system is Cardiac atrium. The experiment in a line: tissue or blood. Conditions: Rattus norvegicus, Wistar, 0.25 h, read-out: INH.
Description: (§1) Inhibition of veratridine-induced diastolic contracture in Wistar rat atrium assessed as inhibition of systolic isometric tension of at 1 uM 15 mins
The subject of the next data set is Heart. As to the kind of experiment: Inhibition of global ischemia-induced diastolic contracture in isolated Langendorff perfused guinea pig model heart at 1 uM after 15 mins. The format is functional, Cavia porcellus.
In data set [4] the test system is Oryctolagus cuniculus. As to the kind of experiment: Reversal of ischemia-induced ST segment elevation in iv dosed anesthetized New Zealand white rabbit. It is filed as functional.
In data set [5] the test system is Oryctolagus cuniculus. The experiment in a line: Ratio of ED50 for reversal of ischemia-induced ST segment elevation in po dosed New Zealand white rabbit to ED50 for reversal of ischemia-induced ST segment elevation iv dosed New Zealand white rabbit. The format is functional.
In data set [6] the test system is Oryctolagus cuniculus. As to the kind of experiment: Effect on heart rate in anesthetized New Zealand white rabbit myocardial ischemia model assessed as beats per minute at 0.63 mg/kg. The format is functional.
For data set [7], the system named is Oryctolagus cuniculus. As to the kind of experiment: Effect on heart rate in anesthetized New Zealand white rabbit myocardial ischemia model assessed as beats per minute at 0.01 mg/kg. It is filed as functional.
For data set [8], the target named is T1, Sodium channel protein type 5 subunit alpha. The experiment in a line: Inhibition of sodium Nav1.5 channel assessed as inhibition of late sodium current elicited at -30 mV from holding potential of -90 mV.
Data set [9] concerns Oryctolagus cuniculus. The experiment in a line: Reversal of ischemia-induced ST segment elevation in po dosed anesthetized New Zealand white rabbit. The format is functional.
The test system of data set [10] is Oryctolagus cuniculus. The experiment in a line: Effect on heart rate in anesthetized New Zealand white rabbit myocardial ischemia model assessed as beats per minute at 0.04 mg/kg. It is filed as functional.
Data set [11] deals with Oryctolagus cuniculus. As to the kind of experiment: Effect on heart rate in anesthetized New Zealand white rabbit myocardial ischemia model assessed as beats per minute at 0.16 mg/kg. The format is functional.
Data set [12] deals with T1, Sodium channel protein type 5 subunit alpha. As to the kind of experiment: Inhibition of sodium Nav1.5 channel assessed as inhibition of late sodium current elicited at -30 mV from holding potential of -110 mV.
Data set [13] concerns Oryctolagus cuniculus. As to the kind of experiment: Effect on heart rate in anesthetized New Zealand white rabbit myocardial ischemia model assessed as beats per minute at 2.5 mg/kg. The format is functional.
In data set [14] the test system is Cardiac atrium. Conditions: Rattus norvegicus, Wistar, 1 uM.
Description: as §1
Data set [15] relates to Oryctolagus cuniculus. The experiment in a line: Reversal of ischemia-induced ST segment elevation in anesthetized New Zealand white rabbit at 2.5 mg/kg, iv. More on the design: dose 2.5 mg/kg. It is filed as functional, organism-based.

As to `COc1ccccc1SC[C@@H](O)CN[C@@H]1COc2ccccc2SC1`, the inhibition at 10 µM in data set [1] was determined as 69%; in data set [2], 75%. Besides, in the data set with Cardiac atrium [3], the inhibition at 1 µM was 54%. In addition, the “inhibition (INH)” value in the data set with Heart was 14%.

In the case of `C=C(CN[C@@H]1COc2ccccc2SC1)CSc1ccccc1OC`, the inhibition at 10 µM turned out to be 36% in [1] and 37% in [2]. For the same molecule, in the data set on Cardiac atrium [3], the inhibition at 1 µM turned out to be 26%.

As for `COc1ccccc1SCCCN[C@@H]1COc2ccccc2SC1`, the inhibition at 1 µM with Cardiac atrium [3] was found to be 3%.

`COc1ccccc1SCC(O)CN[C@@H]1COc2ccccc2SC1` (mixture of isomers): the values for the inhibition at 10 µM in data set [1] and in data set [2] were 37% and 42%, respectively. The inhibition at 1 µM in the data set on Cardiac atrium [3] turned out to be 50%.

With `COc1ccccc1SC[C@H](C)CN[C@@H]1COc2ccccc2SC1`, the values for the inhibition at 10 µM in data set [1] and in data set [2] were 22% and 34%, respectively. The inhibition at 1 µM in the data set on Cardiac atrium [3] worked out at 38%.

`COc1ccccc1SC[C@H](CN[C@@H]1COc2ccccc2SC1)OC(C)=O`: in the data set with Cardiac atrium [3], the inhibition at 1 µM is 9%.

With `CC[C@@H](CN[C@@H]1COc2ccccc2SC1)CSc1ccccc1OC`, the figures for the inhibition at 10 µM in data set [1] and in [2] were 46% and 54%, respectively. The inhibition at 1 µM in the data set with Cardiac atrium [3] amounted to 86%. In the data set on Heart, the “inhibition (INH)” value is listed as 68%.

Regarding `COc1ccccc1OCC(O)CN1CCN(CC(=O)Nc2c(C)cccc2C)CC1` (configuration not stated) [RANOLAZINE], the ED50 with Oryctolagus cuniculus [4] is above 2.5 mg/kg. Further, the inhibition at 10 µM in data set [1] stood at 11%; in data set [2], 19%.

`COc1ccccc1SC[C@@H](C)CN[C@@H]1COc2ccccc2SC1`: the “Ratio ED50” value in the data set on Oryctolagus cuniculus [5] is given as 2.6. The Activity with Oryctolagus cuniculus [6] is -3.2 bpm; in the data set with Oryctolagus cuniculus [7] it was -3.2 bpm; in the data set on Oryctolagus cuniculus [10], 0.3 bpm; in the data set on Oryctolagus cuniculus [11] it was -6.4 bpm; in the data set on Oryctolagus cuniculus [13] it was -8.6 bpm. Further, the median effective dose (ED50) is 0.05 mg/kg in the data set with Oryctolagus cuniculus [4] and 0.13 mg/kg in the data set on Oryctolagus cuniculus [9]. The inhibition at 10 µM in data set [1] was found to be 53%; in data set [2], 70%. The inhibition at 1 µM in the data set on Cardiac atrium [3] worked out at 74%. Besides, the concentration for half-maximal inhibition (IC50) in data set [8] came out at 5.77 µM; in data set [12], 2.56 µM. The “inhibition (INH)” value in the data set with Heart was 65%.

`COc1ccccc1SC[C@H](CN[C@@H]1COc2ccccc2SC1)OC`: the results for the inhibition at 10 µM in data set [1] and in data set [2] were 12% and 27%, respectively. Besides, in the data set on Cardiac atrium [3], the inhibition at 1 µM worked out at 45%. In addition, the “inhibition (INH)” value in the data set on Heart is recorded as 64%.

`CCC[C@@H](CN[C@@H]1COc2ccccc2SC1)CSc1ccccc1OC`: the inhibition at 10 µM in data set [1] came out at 17%; in data set [2] it was 23%. Moreover, the inhibition at 1 µM in the data set on Cardiac atrium [3] came to 23%.

On to `COc1ccccc1SCC(O)CN[C@H]1COc2ccccc2SC1` (mixture of isomers), for which the inhibition at 10 µM in [1] is 16%; in data set [2], 21%. Further, the inhibition at 1 µM in the data set on Cardiac atrium [3] turned out to be 26%.

On to `CCCO[C@@H](CN[C@@H]1COc2ccccc2SC1)CSc1ccccc1OC`, for which the inhibition at 10 µM in [1] and in data set [2] was 27% throughout. In addition, in the data set on Cardiac atrium [3], the inhibition at 1 µM came to 30%.

In the case of `COc1ccccc1SC[C@H](CN[C@@H]1COc2ccccc2SC1)OC(=O)c1ccccc1`, the inhibition at 1 µM in the data set with Cardiac atrium [3] is 3%.

As to `COc1ccccc1SC[C@H](C)CN[C@H]1COc2ccccc2SC1`, the inhibition at 10 µM in [1] was found to be 30%; in data set [2], 44%. In addition, the inhibition at 1 µM with Cardiac atrium [3] turned out to be 26%.

With `NC1=N[C@H](O)[C@H]2[C@H]3O[C@]4(O)O[C@@H]([C@@H](O)[C@@]2(N1)[C@@H]4O)[C@]3(O)CO` [TETRODOTOXIN], in the data set on Cardiac atrium [14], the inhibition worked out at 64%. Also, the “inhibition (INH)” value in [1] (human, hek293, 10 µM) was 79%; in data set [2] (human, hek293, 10 µM) it was 87%.

Regarding `CCO[C@@H](CN[C@@H]1COc2ccccc2SC1)CSc1ccccc1OC`, the inhibition at 10 µM in data set [1] was 22%; in data set [2], 34%. Besides, the inhibition at 1 µM in the data set with Cardiac atrium [3] stood at 46%. The “inhibition (INH)” value in the data set with Heart was 33%.

Regarding `COc1cc2c(cc1OC)CC(=O)N(CCCN(C)C[C@H]1Cc3cc(OC)c(OC)cc31)CC2` [IVABRADINE], the Activity is reported as -69.4 bpm in the data set on Oryctolagus cuniculus [6], -3.4 bpm in the data set with Oryctolagus cuniculus [10], -20.7 bpm in the data set on Oryctolagus cuniculus [11] and -112.6 bpm in the data set with Oryctolagus cuniculus [13]. Further, the 50% effective dose (ED50) in the data set with Oryctolagus cuniculus [4] came to 0.59 mg/kg. Further, the outcome in the data set on Oryctolagus cuniculus [15] was Active.

For the molecule `COc1ccccc1SC[C@H](O)CN[C@@H]1COc2ccccc2SC1`, the inhibition at 10 µM in [1] was determined as 26%; in data set [2], 30%. Besides, the inhibition at 1 µM in the data set with Cardiac atrium [3] was determined as 7%.

As for `COc1ccccc1SC[C@@H](C)CN[C@H]1COc2ccccc2SC1`, the inhibition at 10 µM in [1] worked out at 31%; in data set [2], 41%. Also, the inhibition at 1 µM in the data set on Cardiac atrium [3] came to 25%.

With `COc1ccc(CCN(C)CCCOc2nsc(-c3ccccc3)n2)cc1OC`, the inhibition at 10 µM in data set [1] and in data set [2] was 60% in each case. In addition, the inhibition at 1 µM in the data set on Cardiac atrium [3] amounted to 45%. For the same molecule, the “inhibition (INH)” value in the data set on Heart is recorded as 39%.

Consider `COc1ccccc1SC[C@H](CN[C@@H]1COc2ccccc2SC1)C(C)C`, for which the inhibition at 10 µM in data set [1] stood at 31%; in [2], 34%. Besides, the inhibition at 1 µM in the data set on Cardiac atrium [3] is 90%. Further, the “inhibition (INH)” value in the data set with Heart is 31%.

As for `COc1ccccc1SC[C@@H](F)CN[C@@H]1COc2ccccc2SC1`, the inhibition at 10 µM in data set [1] was 11%; in [2] it was 19%. The inhibition at 1 µM in the data set on Cardiac atrium [3] stood at 32%.

Take `COc1ccccc1SCC(CN[C@@H]1COc2ccccc2SC1)=C(C)C`: the inhibition at 10 µM is 31% in data set [1] and 37% in [2]. For the same molecule, the inhibition at 1 µM in the data set on Cardiac atrium [3] turned out to be 42%. In the data set with Heart, the “inhibition (INH)” value came to 16%.
